Results: patent publication US7951829B2, “Benzimidazole modulators of VR1” (Janssen Pharmaceutica NV, priority 2006, dated 2011)

Molecular target: T1, hVR1 (Homo sapiens, UniProt Q8NER1)
T1 construct: expressed in transfected cells; host or cells: HEK293
Assay: Human VR1 (hVR1) Functional Assay (FLIPR intracellular calcium, capsaicin challenge)
Assay type: cell-based
Settings: capsaicin 0.030 μM, HEK293 cells expressing hVR1; for inhibition at 1 µM: test concentration 1 μM

T1 sequence (Q8NER1 whole entry): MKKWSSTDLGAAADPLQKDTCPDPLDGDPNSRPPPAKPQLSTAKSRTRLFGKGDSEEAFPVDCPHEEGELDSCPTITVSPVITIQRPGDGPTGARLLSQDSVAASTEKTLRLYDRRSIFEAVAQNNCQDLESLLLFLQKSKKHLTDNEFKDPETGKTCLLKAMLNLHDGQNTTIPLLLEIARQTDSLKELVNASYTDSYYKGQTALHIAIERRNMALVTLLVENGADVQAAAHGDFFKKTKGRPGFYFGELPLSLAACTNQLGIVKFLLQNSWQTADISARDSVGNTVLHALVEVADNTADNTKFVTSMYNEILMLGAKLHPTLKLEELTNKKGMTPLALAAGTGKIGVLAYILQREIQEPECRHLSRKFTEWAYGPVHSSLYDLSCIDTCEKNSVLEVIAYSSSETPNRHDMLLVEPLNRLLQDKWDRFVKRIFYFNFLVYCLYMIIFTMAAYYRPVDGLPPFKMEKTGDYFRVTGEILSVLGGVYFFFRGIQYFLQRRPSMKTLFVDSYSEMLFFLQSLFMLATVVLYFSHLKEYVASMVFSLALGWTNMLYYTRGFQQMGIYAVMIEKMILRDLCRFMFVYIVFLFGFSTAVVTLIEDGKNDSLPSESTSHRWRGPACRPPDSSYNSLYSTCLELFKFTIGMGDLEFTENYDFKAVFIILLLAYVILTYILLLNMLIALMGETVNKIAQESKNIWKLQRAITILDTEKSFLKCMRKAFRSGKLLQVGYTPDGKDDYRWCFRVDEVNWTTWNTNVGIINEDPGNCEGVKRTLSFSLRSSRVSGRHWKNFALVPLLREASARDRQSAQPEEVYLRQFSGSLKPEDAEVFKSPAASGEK

SMILES	IC50 [nM]	inhibition at 1 µM [%]
CS(=O)(=O)Nc1ccccc1-c1ccc2[nH]c(/C=C/c3ccc(Cl)c(Cl)c3)nc2c1 [Cpd 416, (E)-N-(2-{2-[2-(3,4-dichloro-phenyl)-vinyl]-1H-benzimidazol-5-yl}-phenyl)-methanesulfonamide]	120	96
CNS(=O)(=O)c1ccccc1-c1ccc2[nH]c(/C=C/c3ccc(F)c(F)c3F)nc2c1 [Cpd 323, (E)-N-methyl-2-{2-[2-(2,3,4-trifluoro-phenyl)-vinyl]-1H-benzimidazol-5-yl}-benzenesulfonamide]	40	97
CNS(=O)(=O)c1ccccc1-c1ccc2[nH]c(/C=C/c3cc(C(F)(F)F)cc(C(F)(F)F)c3)nc2c1 [Cpd 333, (E)-2-{2-[2-(3,5-bis-trifluoromethyl-phenyl)-vinyl]-1H-benzimidazol-5-yl}-N-methyl-benzenesulfonamide]	27	98
CC(O)c1ccccc1-c1ccc2[nH]c(/C=C/c3ccc(C(C)(C)C)cc3)nc2c1 (stereo not shown) [Cpd 2, (E)-1-(2-{2-[2-(4-tert-butyl-phenyl)-vinyl]-1H-benzimidazol-5-yl}-phenyl)-ethanol]	12	100
CC(C)(C)NS(=O)(=O)c1ccccc1-c1ccc2[nH]c(C3CC3c3ccc(C(F)(F)F)cc3)nc2c1 (stereo not shown) [Cpd 499, N-tert-butyl-2-{2-[2-(4-trifluoromethyl-phenyl)-cyclopropyl]-1H-benzimidazol-5-yl}-benzenesulfonamide]		7
OCc1ccccc1-c1ccc2[nH]c(/C=C/c3ccc(C(F)(F)F)cc3)nc2c1 [Cpd 476, (E)-(2-{2-[2-(4-trifluoromethyl-phenyl)-vinyl]-1H-benzimidazol-5-yl}-phenyl)-methanol]	68	
NS(=O)(=O)c1ccccc1-c1ccc2[nH]c(/C=C/c3cc(F)cc(C(F)(F)F)c3)nc2c1 [Cpd 436, (E)-2-{2-[2-(3-fluoro-5-trifluoromethyl-phenyl)-vinyl]-1H-benzimidazol-5-yl}-benzenesulfonamide]	10	96
CNS(=O)(=O)c1ccccc1-c1ccc2[nH]c(/C=C/c3ccc(C(C)=O)cc3)nc2c1 [Cpd 456, (E)-2-{2-[2-(4-acetyl-phenyl)-vinyl]-1H-benzimidazol-5-yl}-N-methyl-benzenesulfonamide]	45	100
CC(C)(O)c1ccccc1-c1ccc2[nH]c([C@@H]3C[C@H]3c3ccc(C(F)(F)F)cc3)nc2c1 [Cpd 501, 2-(2-{2-[(1R,2R)-2-(4-trifluoromethyl-phenyl)-cyclopropyl]-1H-benzimidazol-5-yl}-phenyl)-propan-2-ol]	85	99
CNS(=O)(=O)c1ccccc1-c1ccc2[nH]c(/C=C/c3ccccc3Cl)nc2c1 [Cpd 346, (E)-2-{2-[2-(2-chloro-phenyl)-vinyl]-1H-benzimidazol-5-yl}-N-methyl-benzenesulfonamide]	264	87
CN(C)c1ccc(/C=C/c2nc3cc(-c4ccccc4NS(C)(=O)=O)ccc3[nH]2)cc1 [Cpd 413, (E)-N-(2-{2-[2-(4-dimethylamino-phenyl)-vinyl]-1H-benzimidazol-5-yl}-phenyl)-methanesulfonamide]	240	82
NS(=O)(=O)c1ccccc1-c1ccc2[nH]c(/C=C/c3ccccc3C(F)(F)F)nc2c1 [Cpd 364, (E)-2-{2-[2-(2-trifluoromethyl-phenyl)-vinyl]-1H-benzimidazol-5-yl}-benzenesulfonamide]	65	97
CC(C)(C)C(=O)Nc1ccccc1-c1ccc2[nH]c(/C=C/c3ccc(C(F)(F)F)cc3)nc2c1 [Cpd 460, (E)-2,2-dimethyl-N-(2-{2-[2-(4-trifluoromethyl-phenyl)-vinyl]-1H-benzimidazol-5-yl}-phenyl)-propionamide]		21
Oc1ccccc1-c1cc2nc(/C=C/c3ccc(C(F)(F)F)cc3)[nH]c2cc1Cl [Cpd 68, (E)-2-{6-chloro-2-[2-(4-trifluoromethyl-phenyl)-vinyl]-1H-benzimidazol-5-yl}-phenol]	329	
Cn1c(/C=C/c2ccc(C(F)(F)F)cc2)nc2cc(-c3ccccc3NS(C)(=O)=O)ccc21 [Cpd 477, (E)-N-(2-{1-methyl-2-[2-(4-trifluoromethyl-phenyl)-vinyl]-1H-benzimidazol-5-yl}-phenyl)-methanesulfonamide]		44
NS(=O)(=O)c1ccccc1-c1ccc2[nH]c(CCc3ccc(S(=O)(=O)C(F)(F)F)cc3)nc2c1 [Cpd 131, 2-{2-[2-(4-trifluoromethanesulfonyl-phenyl)-ethyl]-1H-benzimidazol-5-yl}-benzenesulfonamide]	31	96
NS(=O)(=O)c1ccccc1-c1ccc2[nH]c(CCc3ccc(Cl)c(C(F)(F)F)c3)nc2c1 [Cpd 390, 2-{2-[2-(4-chloro-3-trifluoromethyl-phenyl)-ethyl]-1H-benzimidazol-5-yl}-benzenesulfonamide]	7	96
NS(=O)(=O)c1ccccc1-c1ccc2[nH]c(CCc3cccc(F)c3F)nc2c1 [Cpd 394, 2-{2-[2-(2,3-difluoro-phenyl)-ethyl]-1H-benzimidazol-5-yl}-benzenesulfonamide]	6	98

SMILES	IC50 [nM]	inhibition at 1 µM [%]
NS(=O)(=O)c1ccccc1-c1ccc2[nH]c(/C=C/c3ccc(F)c(Br)c3)nc2c1 [Cpd 439, (E)-2-{2-[2-(3-bromo-4-fluoro-phenyl)-vinyl]-1H-benzimidazol-5-yl}-benzenesulfonamide]	23	97
CC(=O)Nc1ccccc1-c1cc2nc(/C=C/c3ccc(C(F)(F)F)cc3)[nH]c2cc1F [Cpd 64, (E)-N-(2-{6-fluoro-2-[2-(4-trifluoromethyl-phenyl)-vinyl]-1H-benzimidazol-5-yl}-phenyl)-acetamide]		41
Cc1ccc(/C=C/c2nc3cc(-c4ccccc4NS(C)(=O)=O)ccc3[nH]2)cc1 [Cpd 412, (E)-N-{2-[2-(2-p-tolyl-vinyl)-1H-benzimidazol-5-yl]-phenyl}-methanesulfonamide]	190	86
CC(=O)Nc1cccc(-c2ccc3[nH]c(/C=C/c4ccc(F)c(F)c4)nc3c2)c1 [Cpd 25, (E)-N-(3-{2-[2-(3,4-difluoro-phenyl)-vinyl]-1H-benzimidazol-5-yl}-phenyl)-acetamide]		4
NS(=O)(=O)c1ccccc1-c1ccc2[nH]c(CCc3ccc(F)cc3F)nc2c1 [Cpd 392, 2-{2-[2-(2,4-difluoro-phenyl)-ethyl]-1H-benzimidazol-5-yl}-benzenesulfonamide]	10	97
CC(=O)Nc1ccc(-c2ccc3[nH]c(/C=C/c4ccc(C(C)(C)C)cc4)nc3c2)cc1 [Cpd 8, (E)-N-(4-{2-[2-(4-tert-butyl-phenyl)-vinyl]-1H-benzimidazol-5-yl}-phenyl)-acetamide]		10
CNS(=O)(=O)c1ccccc1-c1ccc2[nH]c(/C=C/c3ccc(C(=O)O)cc3)nc2c1 [Cpd 453, (E)-4-{2-[5-(2-methylsulfamoyl-phenyl)-1H-benzimidazol-2-yl]-vinyl}-benzoic acid]		22
CNS(=O)(=O)c1ccccc1-c1ccc2[nH]c(/C=C/c3ccc(Cl)cc3)nc2c1 [Cpd 347, (E)-2-{2-[2-(4-chloro-phenyl)-vinyl]-1H-benzimidazol-5-yl}-N-methyl-benzenesulfonamide]	44	100
OCc1ccccc1-c1cc2nc(/C=C/c3ccc(C(F)(F)F)cc3)[nH]c2cc1F [Cpd 61, (E)-(2-{6-fluoro-2-[2-(4-trifluoromethyl-phenyl)-vinyl]-1H-benzimidazol-5-yl}-phenyl)-methanol]	75	100
CN(C)S(=O)(=O)c1ccccc1-c1ccc2[nH]c(CCc3ccc(C(F)(F)F)cc3)nc2c1 [Cpd 399, N,N-dimethyl-2-{2-[2-(4-trifluoromethyl-phenyl)-ethyl]-1H-benzimidazol-5-yl}-benzenesulfonamide]	3	97
NS(=O)(=O)c1ccc(C(F)(F)F)cc1-c1ccc2[nH]c(CCc3ccc(C(F)(F)F)cc3)nc2c1 [Cpd 445, 4-trifluoromethyl-2-{2-[2-(4-trifluoromethyl-phenyl)-ethyl]-1H-benzimidazol-5-yl}-benzenesulfonamide]	20	96
CC(C)(C)OC(=O)Nc1ccccc1-c1ccc2[nH]c(C3CC3c3ccc(C(F)(F)F)cc3)nc2c1 (stereo not shown) [Cpd 473, (2-{2-[2-(4-trifluoromethyl-phenyl)-cyclopropyl]-1H-benzimidazol-5-yl}-phenyl)-carbamic acid tert-butyl ester]	> 500	
OCc1ccccc1-c1ccc2[nH]c(C3CC3c3ccc(C(F)(F)F)cc3)nc2c1 (stereo not shown) [Cpd 474, (2-{2-[2-(4-trifluoromethyl-phenyl)-cyclopropyl]-1H-benzimidazol-5-yl}-phenyl)-methanol]	> 500	
CS(=O)(=O)Nc1ccccc1-c1ccc2[nH]c(/C=C/c3ccc(Cl)cc3)nc2c1 [Cpd 77, (E)-N-(2-{2-[2-(4-chloro-phenyl)-vinyl]-1H-benzimidazol-5-yl}-phenyl)-methanesulfonamide]	76	100
NS(=O)(=O)c1ccccc1-c1ccc2[nH]c(CCc3ccc(F)c(F)c3)nc2c1 [Cpd 393, 2-{2-[2-(3,4-difluoro-phenyl)-ethyl]-1H-benzimidazol-5-yl}-benzenesulfonamide]	10	98
NCc1ccccc1-c1ccc2[nH]c(CCc3ccc(C(F)(F)F)cc3)nc2c1 [Cpd 486, 2-{2-[2-(4-trifluoromethyl-phenyl)-ethyl]-1H-benzimidazol-5-yl}-benzylamine]	> 500	
CCOC(=O)c1ccccc1-c1ccc2[nH]c(/C=C/c3ccc(C(F)(F)F)cc3)nc2c1 [Cpd 466, (E)-2-{2-[2-(4-trifluoromethyl-phenyl)-vinyl]-1H-benzimidazol-5-yl}-benzoic acid ethyl ester]	71	98
